Results as given in patent publication US20250313572A1, “MACROCYCLIC MCL-1 INHIBITORS AND METHODS OF USE” (AbbVie Inc., priority 2017, published 2025).
pKi: −log10 of the molar value. Like-named read-outs stand apart in the source and are kept apart here.

How the values were obtained:
[1] = target: GST-MCL-1 (Homo sapiens, UniProt Q07820); test: TR-FRET MCL-1 binding assay (competition with probe F-Bak); details: for Ki: MCL-1 Binding Ki (nM, 10% HS), in the presence of 10% HS (human serum); for pKi: without HS, read-out: MCL-1 Binding Ki
How it was run: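 Displacement of F-Bak from GST-MCL-1 is detected by time-resolved FRET with a Tb-labelled anti-GST antibody, with excitation 340/35 nm and emission 520/525 and 495/510 nm, after 2 hours at room temperature. Compounds were titrated in 11 three-fold steps starting at 25 μM final, in buffer alone or in 10% HS.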

[2] = system: AMO-1 human multiple myeloma tumor cell line; test: AMO-1 cell viability assay (CellTiter-Glo, 24 hours); format: cell-based
[3] = system: NCI-H929 human multiple myeloma tumor cell line; test: NCI-H929 cell viability assay (CellTiter-Glo, 24 hours); format: cell-based
[4] = Homo sapiens, AMO1, 24 h, read-out: AMO-1 Viability IC50 (μM, 10% FBS), 10% FBS, 24 hours of compound treatment
[5] = Homo sapiens, NCI-H929, 24 h, read-out: H929 Viability IC50 (μM, 10% FBS), 10% FBS, 24 hours of compound treatment

Sequence of GST-MCL-1 (Q07820 whole entry): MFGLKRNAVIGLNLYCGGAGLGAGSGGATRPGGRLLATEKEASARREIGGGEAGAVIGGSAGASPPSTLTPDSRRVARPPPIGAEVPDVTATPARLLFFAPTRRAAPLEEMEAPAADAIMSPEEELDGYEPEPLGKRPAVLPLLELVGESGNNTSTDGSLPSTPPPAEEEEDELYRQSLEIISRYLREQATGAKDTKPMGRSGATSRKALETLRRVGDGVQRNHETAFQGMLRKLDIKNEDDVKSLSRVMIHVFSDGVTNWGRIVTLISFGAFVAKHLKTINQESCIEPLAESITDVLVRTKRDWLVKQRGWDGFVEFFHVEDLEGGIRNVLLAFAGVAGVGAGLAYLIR

Row | SMILES | Ki [1] | pKi [1] | IC50 [2, 4] | IC50 [3, 5] | IC50 ([2]; read-out: AMO-1 Viability IC50 (μM, 10% FBS), 10% FBS, 24 hours of compound treatment) | IC50 ([3]; read-out: H929 Viability IC50 (μM, 10% FBS), 10% FBS, 24 hours of compound treatment)
1 | COCCOCCOCCOCCOCCO[C@H]1CC[C@@H](c2nccc(COc3ccc4cc3C[C@H](C(=O)O)Oc3ncnc5sc(-c6ccc(F)cc6)c(c35)-c3c(C)c(Cl)c(c(Cl)c3C)O[C@H](CN3CCN(C)CC3)CO4)n2)CC1 [Example 82, (7R,16R)-19,23-dichloro-1-(4-fluorophenyl)-20,22-dimethyl-16-[(4-methylpiperazin-1-yl)methyl]-10-[(2-{(1s,4s)-4-[(2,5,8,11,14-pentaoxahexadecan-16-yl)oxy]cyclohexyl}pyrimidin-4-yl)methoxy]-7,8,15,16-tetrahydro-18,21-etheno-13,9-(metheno)-6,14,17-trioxa-2-thia-3,5-diazacyclononadeca[1,2,3-cd]indene-7-carboxylic Acid] | 0.135 nM | 10.85 | 0.000563 µM | 0.00109 µM |  | 
2 | COCCOCCOCCC1CCN(C[C@@H]2COc3ccc(OCc4ccnc(-c5ccccc5OC)n4)c(c3)C[C@H](C(=O)O)Oc3ncnc4sc(-c5ccc(F)cc5)c(c34)-c3ccc(c(Cl)c3C)O2)CC1 (atropisomer, axis not shown) [Example 27, (7R,16R,21R)-19-chloro-1-(4-fluorophenyl)-16-[(4-{2-[2-(2-methoxyethoxy)ethoxy]ethyl}piperidin-1-yl)methyl]-10-{[2-(2-methoxyphenyl)pyrimidin-4-yl]methoxy}-20-methyl-7,8,15,16-tetrahydro-18,21-etheno-13,9-(metheno)-6,14,17-trioxa-2-thia-3,5-diazacyclononadeca[1,2,3-cd]indene-7-carboxylic Acid] | 22 nM | 9.01 |  |  | 0.314 µM | 0.319 µM
3 | COCCOCCOCCOCCOCCOCCOC1(c2nccc(COc3ccc4cc3C[C@H](C(=O)O)Oc3ncnc5sc(-c6ccc(F)cc6)c(c35)-c3c(C)c(Cl)c(c(Cl)c3C)O[C@H](CN3CCN(C)CC3)CO4)n2)CCCC1 [Example 74, (7R,16R)-19,23-dichloro-1-(4-fluorophenyl)-10-[(2-{1-[(2,5,8,11,14,17-hexaoxanonadecan-19-yl)oxy]cyclopentyl}pyrimidin-4-yl)methoxy]-20,22-dimethyl-16-[(4-methylpiperazin-1-yl)methyl]-7,8,15,16-tetrahydro-18,21-etheno-9,13-(metheno)-6,14,17-trioxa-2-thia-3,5-diazacyclononadeca[1,2,3-cd]indene-7-carboxylic Acid] | 0.12 nM | 10.08 | 0.00153 µM | 0.00237 µM |  | 
4 | Cc1c(Cl)c2c(Cl)c(C)c1-c1c(-c3ccc(F)cc3)sc3ncnc(c13)O[C@@H](C(=O)O)Cc1cc(ccc1OCc1ccnc(C3CCS(=O)(=O)C3)n1)OC[C@@H](CN1CCN(C)CC1)O2 (stereo partly drawn) [Example 73, (7R,16R)-19,23-dichloro-10-{[2-(1,1-dioxo-1λ^6-thiolan-3-yl)pyrimidin-4-yl]methoxy}-1-(4-fluorophenyl)-20,22-dimethyl-16-[(4-methylpiperazin-1-yl)methyl]-7,8,15,16-tetrahydro-18,21-etheno-9,13-(metheno)-6,14,17-trioxa-2-thia-3,5-diazacyclononadeca[1,2,3-cd]indene-7-carboxylic Acid] | 0.208 nM | 10.43 | 0.00262 µM | 0.00556 µM |  | 
5 | COCCOCCOCCOCC1(F)CC=C(c2nccc(COc3ccc4cc3C[C@H](C(=O)O)Oc3ncnc5sc(C6=CCCC6)c(c35)-c3c(C)c(Cl)c(c(Cl)c3C)O[C@H](CN3CCN(C)CC3)CO4)n2)CC1 (single isomer, unassigned) [Example 125, (7R,16R)-19,23-dichloro-1-(cyclopent-1-en-1-yl)-10-({2-[(4S*)-4-fluoro-4-(2,5,8,11-tetraoxadodecan-1-yl)cyclohex-1-en-1-yl]pyrimidin-4-yl}methoxy)-20,22-dimethyl-16-[(4-methylpiperazin-1-yl)methyl]-7,8,15,16-tetrahydro-18,21-etheno-13,9-(metheno)-6,14,17-trioxa-2-thia-3,5-diazacyclononadeca[1,2,3-cd]indene-7-carboxylic Acid] | 0.455 nM | 10.43 | 0.000288 µM | 0.00111 µM |  | 
